# Key:
# [1] = tested on: Human breast cancer cells BT474; assay: Antitumor effect in human breast cancer BT474-bearing NOG mice (combination with axitinib); type: in vivo; conditions: day 63 after cancer bearing
# Procedure: Likewise, in vivo antitumor effect in cancer-bearing mouse was evaluated by administering a combination of the anti-CAPRIN-1 antibody (anti-CAPRIN-1 humanized antibody #1) produced in Example 1, and an anti-vascular endothelial growth factor receptor (VEGFR) inhibitor.
# Specifically, the antitumor effect of the combination of the anti-CAPRIN-1 antibody and axitinib according to the present invention was studied using NOG mice in which human-derived cancer cells expressing CAPRIN-1 protein were subcutaneously transplanted. Human breast cancer cells BT474 were subcutaneously transplanted at 2×10^7 cells per mouse as a mixture with Matrigel and allowed to grow until a tumor became approximately 100 mm^3 to prepare cancer-bearing mice. Each anti-CAPRIN-1 antibody produced in Example 1 was administered at 10 mg/kg once a week to the tail veins of five cancer-bearing mice described above. To these mice, administration of axitinib was started simultaneously with the initial administration of the anti-CAPRIN-1 antibody, and the administration was performed at 5 or 25 mg/kg twice a day for 9 days and then once a day for 15 days.
# For a comparative control group, the same dose of the same anti-CAPRIN-1 antibody as above was administered once a week to cancer-bearing mice. For another comparative control group, axitinib was administered at the same administration intervals and dose as above to other individuals of cancer-bearing mice. Cancer-bearing mice in a non-treatment group were used as negative controls. After the start of administration, the sizes of cancers in the cancer-bearing mice were measured over time using calipers. Tumor volumes were calculated according to a standard method using a calculation expression: (Length of the major axis of the tumor)×(Length of the minor axis of the tumor)^2×0.5.
# [2] = tested on: gastroesophageal junction cancer or gastric adenocarcinoma; conditions: RAINBOW trial patients; cited from earlier work
# [3] = molecular target: T1, CAPRIN-1 on the cell membrane surface of mouse kidney cancer cells (Renca) and mouse breast cancer cells (4T1) (Mus musculus, UniProt Q60865); assay: Flow cytometry reactivity with cell membrane surface of mouse cancer cells expressing CAPRIN-1; type: binding; conditions: mouse cancer cells Renca and 4T1
# T1 construct: endogenous in cells; host or cells: Renca, 4T1
# T1 sequence (Q60865 1-707): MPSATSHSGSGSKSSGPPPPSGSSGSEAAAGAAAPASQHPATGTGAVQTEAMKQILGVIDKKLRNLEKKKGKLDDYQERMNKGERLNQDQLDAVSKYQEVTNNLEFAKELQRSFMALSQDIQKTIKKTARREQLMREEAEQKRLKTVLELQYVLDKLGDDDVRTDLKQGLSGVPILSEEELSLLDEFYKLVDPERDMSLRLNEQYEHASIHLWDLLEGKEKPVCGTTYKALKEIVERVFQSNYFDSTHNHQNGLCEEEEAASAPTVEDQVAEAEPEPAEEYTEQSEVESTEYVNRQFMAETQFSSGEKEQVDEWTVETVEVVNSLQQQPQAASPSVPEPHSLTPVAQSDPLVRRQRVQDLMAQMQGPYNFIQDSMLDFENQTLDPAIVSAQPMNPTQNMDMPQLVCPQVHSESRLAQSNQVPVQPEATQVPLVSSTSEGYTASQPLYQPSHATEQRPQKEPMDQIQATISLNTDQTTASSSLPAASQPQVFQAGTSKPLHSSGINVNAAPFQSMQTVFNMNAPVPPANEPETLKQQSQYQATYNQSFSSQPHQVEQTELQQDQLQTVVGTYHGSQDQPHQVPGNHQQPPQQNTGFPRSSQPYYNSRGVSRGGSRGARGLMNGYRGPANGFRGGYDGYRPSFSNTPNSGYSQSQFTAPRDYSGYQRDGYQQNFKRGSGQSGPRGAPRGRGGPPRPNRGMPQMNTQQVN
# Source text: (§1) The reactivity of the anti-CAPRIN-1 antibody with cancer cells without permeation treatment of cell membrane was examined by flow cytometry to confirm that a portion of CAPRIN-1 was expressed on the cell membrane surface of cancer cells as shown in Examples given below.
# [4] = molecular target: T2, CAPRIN-1 on the cell membrane surface of human cancer cells (Homo sapiens, UniProt Q14444); assay: Flow cytometry reactivity with cell membrane surface of human cancer cells expressing CAPRIN-1; type: binding; conditions: human cancer cells BT-474, HT-29, QG56, H1650, NCI-N87, HEC-1-A, 22Rv1, Panc10.5, Hep3B, SKOV3, Caki-2, U-87MG, T24, OE33, OCI-AIM5, Ramos, TGBC14TKB, HT-1080, G-361
# T2 construct: endogenous in cells; host or cells: BT-474, HT-29, QG56, H1650, NCI-N87, HEC-1-A, 22Rv1, Panc10.5, Hep3B, SKOV3, Caki-2, U-87MG, T24, OE33, OCI-AIM5, Ramos, TGBC14TKB, HT-1080, G-361
# T2 sequence (Q14444 1-709): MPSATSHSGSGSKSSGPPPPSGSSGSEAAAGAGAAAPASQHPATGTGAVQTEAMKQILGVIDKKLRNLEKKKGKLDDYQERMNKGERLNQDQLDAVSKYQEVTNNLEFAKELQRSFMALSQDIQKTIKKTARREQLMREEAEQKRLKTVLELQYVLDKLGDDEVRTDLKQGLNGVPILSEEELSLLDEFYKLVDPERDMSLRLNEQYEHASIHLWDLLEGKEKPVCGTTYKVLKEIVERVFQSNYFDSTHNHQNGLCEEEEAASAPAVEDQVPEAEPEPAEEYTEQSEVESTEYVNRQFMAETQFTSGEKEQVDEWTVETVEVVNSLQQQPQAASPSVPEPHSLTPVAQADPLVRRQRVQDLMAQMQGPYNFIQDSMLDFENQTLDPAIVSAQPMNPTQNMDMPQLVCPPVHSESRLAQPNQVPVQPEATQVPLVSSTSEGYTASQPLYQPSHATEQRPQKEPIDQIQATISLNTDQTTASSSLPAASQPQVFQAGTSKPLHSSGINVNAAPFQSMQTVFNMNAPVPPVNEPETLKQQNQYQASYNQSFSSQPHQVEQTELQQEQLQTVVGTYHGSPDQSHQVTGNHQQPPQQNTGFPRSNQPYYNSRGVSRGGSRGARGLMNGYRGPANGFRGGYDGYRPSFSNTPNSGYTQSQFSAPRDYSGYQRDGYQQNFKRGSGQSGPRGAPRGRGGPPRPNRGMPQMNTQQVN
# Source text: Reactivity of each monoclonal antibody with human cancer cells confirmed to express CAPRIN-1 protein on the cell membrane surface was further confirmed by flow cytometry.
# as §1
# [5] = tested on: Human breast cancer cells BT474; assay: Antitumor effect in human breast cancer BT474-bearing NOD-SCID mice (combination with bevacizumab); type: in vivo; conditions: day 41 after cancer bearing, antibody 10 mg/kg once a week, bevacizumab 1.25 mg/kg once a week
# Procedure: Human breast cancer cells BT474 were subcutaneously transplanted at 2×10^7 cells per mouse as a mixture with Matrigel (Sigma) and allowed to grow until a tumor became approximately 100 mm^3 to prepare cancer-bearing mice.
# For a comparative control group, the same dose of the same anti-CAPRIN-1 antibody as above was administered once a week to cancer-bearing mice. […] Cancer-bearing mice in a non-treatment group were used as negative controls. After the start of administration, the sizes of cancers in the cancer-bearing mice were measured over time using calipers. Tumor volumes were calculated according to a standard method using a calculation expression: (Length of the major axis of the tumor)×(Length of the minor axis of the tumor)^2×0.5.
molecule,measurement,setting,value
CNC(=O)c1ccccc1Sc1ccc2c(/C=C/c3ccccn3)n[nH]c2c1 [axitinib],tumor volume when the tumor volume of the negative control was defined as 100%,[1]; axitinib 5 mg/kg (alone or with antibody 10 mg/kg once a week),39%
same,tumor volume when the tumor volume of the negative control was defined as 100%,[1]; axitinib 25 mg/kg (alone or with antibody 10 mg/kg once a week),27%
CC(=O)O[C@H]1C(=O)[C@@]2(C)[C@H]([C@H](OC(=O)c3ccccc3)[C@]3(O)C[C@H](OC(=O)[C@H](O)[C@@H](NC(=O)c4ccccc4)c4ccccc4)C(C)=C1C3(C)C)[C@]1(OC(C)=O)CO[C@@H]1C[C@@H]2O [paclitaxel],median overall survival,[2],7.4 months
same,median progression-free survival,[2],2.9 months
"anti-CAPRIN-1 humanized antibody #1: humanized IgG1 antibody with CDRs of the mouse anti-CAPRIN-1 monoclonal antibody (heavy chain SEQ ID NO: 114, light chain SEQ ID NO: 115) (antibody, listed as Mus musculus) heavy: GPELVKPGASVKMSCKASGYTFTSYVMHWVKQKPGQGLEWIGYINPYNDGTKYNEKFKGKATLTSDKSSSTAYMELSSLTSEDSAVYYCARRYYYGSSGGYFDVWAQDHVRT light: DVQITQSPSYLAASPGETITINCRASKSISKYLAWYQEKPGKTNKLLIYSGSTLQSGIPSRFSGSGSGTDFTLTISSLEPEDFAMYYCQQHNEYPYTFGGGTKLEIKR",reactivity with the cell membrane surface of cancer cells (fluorescence intensity vs IgG control),[3],reacted strongly
same,reactivity with the cell membrane surface of cancer cells (fluorescence intensity vs IgG control),[4],reacted strongly
same,tumor volume when the tumor volume of the negative control was defined as 100%,[1]; antibody alone 10 mg/kg once a week,40%
same,tumor volume when the tumor volume of the negative control was defined as 100%,[5],52%

# — patent US12723074B2, “Medicament for treatment and/or prevention of cancer” (TORAY INDUSTRIES, INC., priority 2020, dated 2026)
